Measured values published in US7863313B2, “Methods for the treatment of inflammatory diseases” (Cortical PTY LTD, priority 2003, dated 2011).

How the values were obtained:
[1] = test system: MIF-induced proliferation of mouse NIH 3T3 fibroblasts; assay: MIF-induced proliferation in mouse fibroblasts (3H-thymidine incorporation); type: cell-based; conditions: Compound (10×^10−6M) + MIF 50 ng/ml; nil 1087, MIF + vehicle 1452
Experimental: The activity of compounds was studied in a bioassay utilising MIF-induced proliferation of mouse NIH 3T3 fibroblasts. […] NIH 3T3 cells were propagated in DMEM/10% foetal calf serum (FCS). Prior to experimentation, cells were seeded at 10^4 cells/well in 96-well plates in DMEM/10% FCS for 18 hours. The media was then replaced with DMEM/0.1% FCS and the cells incubated for a further 18 hr. At time point −1 hr, culture medium was replaced with DMEM/0.1% FCS and cells were treated with a compound of the invention at a final concentration of 10 μM or vehicle. At time point zero, cells were treated with MIF at a final concentration of 50 ng/ml. At time point 6 hr the cells were pulsed with 1 µCi/well of ^3H-thymidine. At time point 24 hours, cells were harvested using a semi-automated cell harvester. The radioactivity incorporated into DNA was determined by liquid scintillation counting, with results expressed as ^3H-thymidine incorporation (cpm). Statistical significance was analysed using the Mann-Whitney test.

[2] = test system: LPS-IFN—induced nitrite production; assay: MIF-dependent nitrite production in peritoneal macrophages (Greiss assay); type: cell-based, mouse; conditions: for inhibition at 100 µM: Mus musculus, Peritoneal macrophage, compound 100 μM, LPS 10 ng/ml + interferon-γ 10 units/ml, 24 h, read-out: % Inhibition of nitrite (± SD)
Experimental: MIF is able to induce or facilitate the expression and release of a wide variety of pro-inflammatory and/or destructive molecules, including the release of macrophage nitric oxide (NO) ^(20). A compound with the ability to inhibit the cytokine or biological function of MIF might be expected to inhibit the activation of NO production by macrophages.
C57BL6/J male mice were injected intraperitoneally with 2 ml of thioglycolate. Three days later peritoneal macrophages were collected by lavaging the peritoneum with 3 ml of cold Hank's buffered saline solution. Cells from several mice were pooled, washed and re-suspended in DMEM supplemented with 5% FCS. Cells were plated in 96 well plastic tissue culture plates at 1×10^5 cells/well. Cells were treated in triplicate wells with compound or vehicle for 1 hour in a 5% CO2 incubator at 37° C. Cells were then treated with LPS (10 ng/ml) and recombinant human interferon-γ (10 units/ml) and incubated for 24 hours. After 24 hours, 50 μl of supernatant from each well was carefully removed and transferred to ELISA plates. The production of NO was measured by analysing the concentration of nitrite in culture supernatants, as measured by the Greiss assay ^(21). The results were calculated as the percentage inhibition of nitrite concentration in compound-treated cell culture supernatants, compared to that of vehicle-treated cells.

[3] = test system: LPS-induced serum IL-1, IL-6, and TNF; assay: Mouse endotoxic shock model (serum cytokines by ELISA); type: in vivo; conditions: for effect on serum IL-1: 5 mg/kg; for IL-1 (pg/ml), serum: 5 mg/kg i.p. 24 h and 1 h before LPS 5 mg/kg, saline 175 ± 43, LPS plus vehicle 428 ± 168; for IL-1 (pg/ml), serum / IL-6 (ng/ml), serum / TNF (pg/ml), serum: 1.5 h after LPS; for effect on serum IL-6 / effect on serum TNF: 15 mg/kg; for IL-6 (ng/ml), serum / TNF (pg/ml), serum: 15 mg/kg i.p. 24 h and 1 h before LPS 5 mg/kg; for IL-6 (ng/ml), serum: saline 4 ± 4, LPS plus vehicle 118 ± 30; for TNF (pg/ml), serum: saline 189 ± 69, LPS plus vehicle 2022 ± 1245
Text: The activity of compounds was studied in the murine endotoxic shock model. In this model, features of shock, characterised by increased serum levels of cytokines such as IL-1, tumor necrosis factor (TNF), and interleukin 6 (IL-6), are induced by the injection of bacterial lipoloysaccharide (LPS). The in vivo production of IL-1, IL-6, and TNF in response to endotoxin has been previously shown to be dependent on MIF ^(23).
Groups of four mice were used in each experiment. Endotoxaemia was induced by intra-peritoneal injection of lipopolysaccharide (LPS) (5 mg/kg) in 300 μl saline. Mice injected with saline alone were used as a control group. Treatments were administered by intra-peritoneal injection at intervals 24 hours and 1 hour before intra-peritoneal LPS injection. Mice were treated with saline, compounds dissolved in DMSO/saline vehicle at a dose of 5-15 mg/kg body weight, or vehicle (containing matching concentrations of DMSO).
After 1.5 hours mice were humanely killed by CO2 inhalation then neck dislocation. Serum was obtained from blood obtained by cardiac puncture prior to death and measured for the concentration of cytokines including IL-1, TNF, and/or IL-6, by ELISA. Statistical significance was analysed using the Mann-Whitney test.

[4] = test system: IL-1 induced COX-2 expression; assay: Combination of MIF-antagonist with glucocorticoid: IL-1 induced fibroblast COX-2 expression; type: cell-based, human; conditions: IL-1 + dexamethasone 1 nM alone; control 0.7400, IL-1 49.37
Experimental: S112 human dermal fibroblasts were propagated in RPMI/10% foetal calf serum (FCS). Prior to experimentation, cells were seeded at 2×10^5 cells/ml in RPMI/0.1% BSA for 18 hours. Cells were treated with compound at 1-100 μM and 30 minutes later with recombinant human IL-1 (0.1 ng/ml). After 6 hours, cells were collected and intracellular COX-2 protein determined by permeabilisation flow cytometry, as described by Sampey et al ^(18). Cells permeabilised with 0.2% saponin were sequentially labelled with a mouse anti-human COX-2 monoclonal antibody and with sheep-anti-mouse F(ab)2 fragment labelled with fluoroscein isothiocyanate. Cellular fluorescence was determined using a flow cytometer. At least 5000 events were counted for each reading, each of which was performed in duplicate, and the results expressed in mean fluorescence intensity (MFI) after subtraction of negative control-labelled cell fluorescence.
The above in vitro assay (Biological Example 2) for analysing the effect of MIF antagonists on IL-1 induced COX-2 expression was performed using 2-(2-hydroxyethoxy)-2-(4′-hydroxy-3′-methylphenyl)-1,3-dioxolane (Compound 1) (50 μM), dexamethasone (1 nM) or a combination of dexamethasone (1 nM) and Compound 1 (50 μM). COX-2 expression was expressed as the mean fluorescence intensity (MFI) as measured by flow cytometry, after deduction of the MFI for control-labelled samples, as described by Sampey et al. ^(18).

| melting point | SMILES | Mean cpm (3H-thymidine incorporation) [1] | inhibition at 100 µM [2] | effect on serum IL-1 [3] | IL-1 (pg/ml), serum [3] | effect on serum IL-6 [3] | effect on serum TNF [3] | IL-6 (ng/ml), serum [3] | TNF (pg/ml), serum [3] | also measured |
| --- | --- | --- | --- | --- | --- | --- | --- | --- | --- | --- |
| 54 to 56 °C | COc1ccc(C2NCCS2)cc1OC (centres unmarked) [Compound 8, 2-(3,4-Dimethoxyphenyl)-1,3-thiazolane] | 1238 cpm | – | – | – | – | – | – | – | – |
| 158 to 161 °C | COc1cc(C2NCCS2)ccc1O (centres unmarked) [Compound 7, 2-(4-Hydroxy-3-methoxyphenyl)-1,3-thiazolane] | 1281 cpm | 15 ± 1% | – | – | – | – | – | – | – |
| – | CCCCCCC1(c2ccc(C)cc2)SCCS1 [Compound 17, 2-Hexyl-2-(4-methylphenyl)-1,3-dithiolane] | 933.2 cpm | 69 ± 2% | – | – | – | – | – | – | inhibition of LPS-induced serum IL-6 ([3]; 5 and 15 mg/kg, FIG. 10b): marked inhibition; inhibition of LPS-induced serum TNF ([3]; 5 and 15 mg/kg, FIG. 10c): marked inhibition; inhibition of LPS-induced serum IL-1 ([3]; 5 and 15 mg/kg, statistically significant P<0.05, FIG. 10a): marked inhibition |
| 94 to 95 °C | COc1ccc(C2NCCS2)cc1 (centres unmarked) [Compound 5, 2-(4-Methoxyphenyl)-1,3-thiazolane] | – | 22 ± 2% | – | – | – | – | – | – | – |
| – | Cc1ccc(-c2cnn(CCC(C)C)c2)cc1 [Compound 13, 1-(3-Methylbutyl)-4-(4-methylphenyl)-1H-pyrazole] | 1015 cpm | 91 ± 8% | inhibitory effect | 305 ± 51 pg/mL | inhibitory effect | inhibitory effect | 92 ± 7 ng/mL | 1067 ± 191 pg/mL | inhibition of LPS-IFN—induced nitrite production ([2]; 0.5-100 μM, FIG. 8): dose-responsive inhibition |
| – | c1csc(-c2ccc(C3OCCS3)cc2)c1 (centres unmarked) [Compound 33, 2-(4-Thien-2-ylphenyl)-1,3-oxathiolane] | – | 47 ± 4% | inhibitory effect | 360 ± 72 pg/mL | inhibitory effect | inhibitory effect | 95 ± 14 ng/mL | 1152 ± 317 pg/mL | – |
| – | COc1ccc(-c2cnn(CCC(C)C)c2)cc1 [Compound 12, 4-(4-Methoxyphenyl)-1-(3-methylbutyl)-1H-pyrazole] | – | 78 ± 9% | inhibitory effect | 286 ± 102 pg/mL | inhibitory effect | inhibitory effect | 80 ± 16 ng/mL | 1636 ± 468 pg/mL | – |
| – | C[C@@H]1C[C@H]2[C@@H]3CCC4=CC(=O)C=C[C@]4(C)[C@@]3(F)[C@@H](O)C[C@]2(C)[C@@]1(O)C(=O)CO [DEX, dexamethasone, reference compound] | – | – | – | – | – | – | – | – | Mean COX-2 expression (MFI) [4]: 15.13 MFI |
| 107 °C | Brc1ccc(C2NCCS2)cc1 (centres unmarked) [Compound 4, 2-(4-Bromophenyl)-1,3-thiazolane] | – | 22 ± 1% | – | – | – | – | – | – | – |
